Assay results taken from ChEMBL document CHEMBL3885881, “DrugMatrix”.

Species: Rattus norvegicus
Test: DrugMatrix - Regimen: Daily Repeat
Format: toxicity, organism-based, Sprague-Dawley
Design: regimen Daily Repeat, gender Male, age 6-8 weeks
Conditions: in vivo, ip, 0 mg/kg, route intraperitoneal, dose level Control, vehicle 100 % SALINE; for ABSOLUTE BASOPHIL / ABSOLUTE EOSINOPHIL / ABSOLUTE LYMPHOCYTE / ABSOLUTE MONOCYTE / ABSOLUTE SEGMENTED NEUTROPHIL / BASOPHIL / EOSINOPHIL / ERYTHROCYTE COUNT / HEMATOCRIT / HEMOGLOBIN / LEUKOCYTE COUNT / LYMPHOCYTE / MEAN CORPUSCULAR HEMOGLOBIN / MEAN CORPUSCULAR HEMOGLOBIN CONCENTRATION / MEAN CORPUSCULAR VOLUME / MONOCYTE / NEUTROPHIL / PLATELET COUNT: tissue Blood
[1] = 120 h, tissue Plasma, time 5 day
[2] = […], tissue Plasma, time 14 day
[3] = […], tissue Plasma, time 28 day

Sequence: CARBOPLATIN
- ABSOLUTE BASOPHIL (120 h, time 5 day): 32 cells/µL
- ABSOLUTE EOSINOPHIL (120 h, time 5 day): 110 cells/µL
- ABSOLUTE LYMPHOCYTE (120 h, time 5 day): 6630 cells/µL
- ABSOLUTE MONOCYTE (120 h, time 5 day): 140 cells/µL
- ABSOLUTE SEGMENTED NEUTROPHIL (120 h, time 5 day): 1170 cells/µL
- BASOPHIL (120 h, time 5 day): 0.38%
- EOSINOPHIL (120 h, time 5 day): 1.28%
- ERYTHROCYTE COUNT (120 h, time 5 day): 7.45 x10E6/uL
- HEMATOCRIT (120 h, time 5 day): 45.74%
- HEMOGLOBIN (120 h, time 5 day): 14.72 G/DL
- LEUKOCYTE COUNT (120 h, time 5 day): 8.11 x10E3/uL
- LYMPHOCYTE (120 h, time 5 day): 81.3%
- MEAN CORPUSCULAR HEMOGLOBIN (120 h, time 5 day): 19.76 pg
- MEAN CORPUSCULAR HEMOGLOBIN CONCENTRATION (120 h, time 5 day): 32.16 G/DL
- MEAN CORPUSCULAR VOLUME (120 h, time 5 day): 61.38 fL
- MONOCYTE (120 h, time 5 day): 1.76%
- NEUTROPHIL (120 h, time 5 day): 14.9%
- PLATELET COUNT (120 h, time 5 day): 1322.4 x10E3/uL
- ALANINE AMINOTRANSFERASE [1]: 25.8 u/L
- ALBUMIN [1]: 3.64 G/DL
- ASPARTATE AMINOTRANSFERASE [1]: 81.4 u/L
- BLOOD UREA NITROGEN [1]: 14.4 mg/dL
- CHOLESTEROL [1]: 69.2 mg/dL
- CREATINE PHOSPHOKINASE [1]: 303.2 u/L
- CREATININE [1]: 0.56 mg/dL
- GLUCOSE [1]: 125.4 mg/dL
- LACTATE DEHYDROGENASE [1]: 105.4 u/L
- LIPASE [1]: 22.4 u/L
- POTASSIUM [1]: 5.52 MEQ/L
- SODIUM [1]: 147 MEQ/L
- TOTAL BILIRUBIN [1]: 0.2 mg/dL
- TOTAL PROTEIN [1]: 6.1 G/DL
- URIC ACID [1]: 1.06 mg/dL
- ABSOLUTE BASOPHIL ([…], time 14 day): 130 cells/µL
- ABSOLUTE EOSINOPHIL ([…], time 14 day): 140 cells/µL
- ABSOLUTE LYMPHOCYTE ([…], time 14 day): 13500 cells/µL
- ABSOLUTE MONOCYTE ([…], time 14 day): 400 cells/µL
- ABSOLUTE SEGMENTED NEUTROPHIL ([…], time 14 day): 2330 cells/µL
- BASOPHIL ([…], time 14 day): 0.72%
- EOSINOPHIL ([…], time 14 day): 0.86%
- ERYTHROCYTE COUNT ([…], time 14 day): 7.74 x10E6/uL
- HEMATOCRIT ([…], time 14 day): 45.98%
- LEUKOCYTE COUNT ([…], time 14 day): 16.61 x10E3/uL
- LYMPHOCYTE ([…], time 14 day): 81.34%
- MEAN CORPUSCULAR HEMOGLOBIN ([…], time 14 day): 18 pg
- MEAN CORPUSCULAR HEMOGLOBIN CONCENTRATION ([…], time 14 day): 30.22 G/DL
- MEAN CORPUSCULAR VOLUME ([…], time 14 day): 59.4 fL
- MONOCYTE ([…], time 14 day): 2.46%
- NEUTROPHIL ([…], time 14 day): 14.14%
- PLATELET COUNT ([…], time 14 day): 1445.5 x10E3/uL
- ABSOLUTE BASOPHIL ([…], time 28 day): 91 cells/µL
- ABSOLUTE EOSINOPHIL ([…], time 28 day): 110 cells/µL
- ABSOLUTE LYMPHOCYTE ([…], time 28 day): 9910 cells/µL
- ABSOLUTE MONOCYTE ([…], time 28 day): 210 cells/µL
- ABSOLUTE SEGMENTED NEUTROPHIL ([…], time 28 day): 1560 cells/µL
- BASOPHIL ([…], time 28 day): 0.77%
- EOSINOPHIL ([…], time 28 day): 0.92%
- ERYTHROCYTE COUNT ([…], time 28 day): 8.21 x10E6/uL
- HEMATOCRIT ([…], time 28 day): 47.53%
- HEMOGLOBIN ([…], time 28 day): 15.65 G/DL
- LEUKOCYTE COUNT ([…], time 28 day): 11.91 x10E3/uL
- LYMPHOCYTE ([…], time 28 day): 83.34%
- MEAN CORPUSCULAR HEMOGLOBIN ([…], time 28 day): 19.07 pg
- MEAN CORPUSCULAR HEMOGLOBIN CONCENTRATION ([…], time 28 day): 32.93 G/DL
- MEAN CORPUSCULAR VOLUME ([…], time 28 day): 57.9 fL
- MONOCYTE ([…], time 28 day): 1.68%
- NEUTROPHIL ([…], time 28 day): 12.97%
- PLATELET COUNT ([…], time 28 day): 1323.8 x10E3/uL
- ALANINE AMINOTRANSFERASE [2]: 31.6 u/L
- ALBUMIN [2]: 3.66 G/DL
- ALKALINE PHOSPHATASE [2]: 228.6 u/L
- ASPARTATE AMINOTRANSFERASE [2]: 79.6 u/L
- BLOOD UREA NITROGEN [2]: 11.2 mg/dL
- CHLORIDE [2]: 107 MEQ/L
- CHOLESTEROL [2]: 57 mg/dL
- CREATININE [2]: 0.5 mg/dL
- GLUCOSE [2]: 124.4 mg/dL
- LACTATE DEHYDROGENASE [2]: 106.4 u/L
- LIPASE [2]: 24.4 u/L
- PHOSPHORUS [2]: 10.52 mg/dL
- POTASSIUM [2]: 6.34 MEQ/L
- SODIUM [2]: 149.2 MEQ/L
- TOTAL BILIRUBIN [2]: 0.2 mg/dL
- TOTAL PROTEIN [2]: 6.48 G/DL
- URIC ACID [2]: 0.94 mg/dL
- ALANINE AMINOTRANSFERASE [3]: 30 u/L
- ALBUMIN [3]: 3.71 G/DL
- ALKALINE PHOSPHATASE [3]: 186.8 u/L
- ASPARTATE AMINOTRANSFERASE [3]: 78.2 u/L
- BLOOD UREA NITROGEN [3]: 14.2 mg/dL
- CHOLESTEROL [3]: 44.9 mg/dL
- CREATINE PHOSPHOKINASE [3]: 334.3 u/L
- CREATININE [3]: 0.6 mg/dL
- GLUCOSE [3]: 147.2 mg/dL
- LACTATE DEHYDROGENASE [3]: 123.1 u/L
- LIPASE [3]: 9.6 u/L
- PHOSPHORUS [3]: 10.01 mg/dL
- POTASSIUM [3]: 6.57 MEQ/L
- SODIUM [3]: 149.5 MEQ/L
- TOTAL BILIRUBIN [3]: 0.21 mg/dL
- TOTAL PROTEIN [3]: 6.66 G/DL
